Assay results: patent publication US20030059338A1, “Methods for sterilizing biological materials using flavonoid/flavonol stabilizers” (priority 2001, published 2003)

What was measured:
[1] = system: thrombin; experiment: Thrombin clotting activity (chromagenic) of lyophilized thrombin after gamma irradiation with stabilizer (Example 3); format: biochemical; conditions: lyophilized thrombin + 10% BSA, 48.5-51.2 kGy at 1.846-1.949 kGy/hr, 4° C.; epicatechin 200 mM, purpurogallin 1M, biacalein 50 mM
Protocol: Samples of thrombin (100 NIH units, 1 ml), alone or in the presence of epicatechin (200 mM) or purpurogallin (1M, Aldrich) or biacalein (50 mM; Aldrich), and 10% bovine serum albumin, were prepared and lyophilized. Lyophilized samples were gamma irradiated to 48.5-51.2 kGy at a dose rate of 1.846-1.949 kGy/hr at 4° C. All samples were then assayed for clotting activity by conventional chromagenic methodology.

[2] = system: anti-insulin monoclonal immunoglobulin; experiment: ELISA activity of freeze-dried anti-insulin monoclonal immunoglobulin after gamma irradiation with stabilizer (Example 1); format: binding; conditions: freeze-dried anti-insulin mAb + 1% BSA, irradiated to 45 kGy at 1.83 kGy/hr, 4° C.; diosmin 39.3 mM or silymarin 246 mM
Protocol: Samples were prepared by combining anti-insulin monoclonal antibody ([…] of 2 mg/ml solution) and either diosmin (39.3 mM; Sigma cat# D3525 lot 125H0831) or silymarin (246 mM; Aldrich cat #24592-4) in 3 ml glass vials with 13 mm stoppers. Samples were freeze-dried for approximately 64 hours and stoppered under vacuum and sealed with an aluminum, crimped seal. Samples were irradiated at a dose rate of 1.83 kGy/hr to a total dose of 45 kGy at 4° C. Monoclonal immunoglobulin activity was determined by a standard ELISA protocol. Maxisorp plates were coated with human recombinant insulin at […] overnight at 4° C. The plate was blocked with […] of blocking buffer (PBS, pH 7.4, 2% BSA) for two hours at 37° C. and then washed six times with wash buffer (TBS, pH 7, 0.05% TWEEN 20). Samples were re-suspended in […] of high purity water (100 ng/ml), diluted to 5 Fg/ml in a 300 Fl U-bottomed plate coated for either overnight or two hours with blocking buffer. Serial 3-fold dilutions were performed, with a final concentration of […]. Plates were incubated for one hour at 37° C. with agitation and then washed six times with a wash buffer. Phosphatase-labelled goat anti-mouse IgG (H+L) was diluted to 50 ng/ml in binding buffer and […] was added to each well. […] The plate was read on a Multiskan MCC/340 at 405 nm with the background absorbance at 620 nm subtracted.

Structure (SMILES) | thrombin activity retained following gamma irradiation [1] | recovery of activity [2] [%]
O=c1cc(-c2ccccc2)oc2cc(O)c(O)c(O)c12 [biacalein] | about 57% | 
COc1ccc(-c2cc(=O)c3c(O)cc(O[C@@H]4O[C@H](CO[C@@H]5O[C@@H](C)[C@H](O)[C@@H](O)[C@H]5O)[C@@H](O)[C@H](O)[C@H]4O)cc3o2)cc1O [diosmin] |  | ~62
O=c1c(O)cccc2cc(O)c(O)c(O)c12 [purpurogallin] | over 90% | 
